Measurements reported in patent US9670231B2, “Fused tricyclic amide compounds as multiple kinase inhibitors” (BEIGENE, LTD., priority 2013, dated 2017).

Tests used:
Assay type in all cases: biochemical
wild type B-Raf = wild type B-Raf (Homo sapiens (Human), UniProt P15056); experiment: WT BRaf IC50 assay, TR-FRET; settings: Km ATP ([…] ATP); read-out: IC50 Braf-WT Km ATP
Experimental: WT BRaf IC50 Assay Protocol
Compounds disclosed herein were tested against wild type B-Raf (PV3848, from Invitrogen) in a time-resolved fluorescence energy transfer assay. […] The enzyme was incubated with the compounds disclosed herein at room temperature for 120 minutes and the reactions were initiated by the addition of ATP and GST-MEK1. After incubating at room temperature for 60 minutes, an equal volume of stop buffer containing 25 mM Tris pH7.4, 400 mM KF, 50 mM EDTA, 0.1% BSA, 0.01% Triton X-100, 1 test of Eu3+Cryptate-conjugated rabbit polyclonal antibody anti-Phospho MEK1/2 (Ser217/221) and 1 test of d2-conjugated mouse monoclonal antibody anti-glutathione S-transferase was added to stop the reactions. Plates were sealed and incubated at room temperature for 1.5 hours, and then the TR-FRET signals were read on BMG PHERAstar FS instrument. The IC50 for each compound was calculated by non linear regression by Graphpad Prism software.

[1] = molecular target: EGFR T790M/L858R kinase domain (Homo sapiens (Human), UniProt P00533, L858R/T790M); experiment: EGFR enzymatic assay, TR-FRET, EGFR T790M/L858R
EGFR T790M/L858R kinase domain, sequence (P00533 669-1210 T790M/L858R): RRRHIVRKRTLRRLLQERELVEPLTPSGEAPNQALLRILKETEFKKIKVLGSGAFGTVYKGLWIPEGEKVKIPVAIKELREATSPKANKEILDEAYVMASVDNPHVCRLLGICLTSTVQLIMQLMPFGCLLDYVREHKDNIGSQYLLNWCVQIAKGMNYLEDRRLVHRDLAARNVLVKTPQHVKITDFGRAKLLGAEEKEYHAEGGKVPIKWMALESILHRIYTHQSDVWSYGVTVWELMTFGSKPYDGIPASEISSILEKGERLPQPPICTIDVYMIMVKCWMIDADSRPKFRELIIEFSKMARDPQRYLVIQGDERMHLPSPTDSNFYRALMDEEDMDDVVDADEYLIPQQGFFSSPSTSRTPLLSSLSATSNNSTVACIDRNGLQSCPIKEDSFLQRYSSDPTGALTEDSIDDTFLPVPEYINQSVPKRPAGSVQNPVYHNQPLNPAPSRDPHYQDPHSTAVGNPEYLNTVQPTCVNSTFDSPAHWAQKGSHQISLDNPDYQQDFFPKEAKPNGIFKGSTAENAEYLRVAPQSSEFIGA

C-Raf (Y340D/Y341D) = C-Raf (Y340D/Y341D) (Homo sapiens (Human), UniProt P04049, Y340D/Y341D); experiment: Raf IC50 assay, TR-FRET, C-Raf (Y340D/Y341D); settings: 0.1 mM ATP
C-Raf (Y340D/Y341D), sequence (P04049 whole entry Y340D/Y341D): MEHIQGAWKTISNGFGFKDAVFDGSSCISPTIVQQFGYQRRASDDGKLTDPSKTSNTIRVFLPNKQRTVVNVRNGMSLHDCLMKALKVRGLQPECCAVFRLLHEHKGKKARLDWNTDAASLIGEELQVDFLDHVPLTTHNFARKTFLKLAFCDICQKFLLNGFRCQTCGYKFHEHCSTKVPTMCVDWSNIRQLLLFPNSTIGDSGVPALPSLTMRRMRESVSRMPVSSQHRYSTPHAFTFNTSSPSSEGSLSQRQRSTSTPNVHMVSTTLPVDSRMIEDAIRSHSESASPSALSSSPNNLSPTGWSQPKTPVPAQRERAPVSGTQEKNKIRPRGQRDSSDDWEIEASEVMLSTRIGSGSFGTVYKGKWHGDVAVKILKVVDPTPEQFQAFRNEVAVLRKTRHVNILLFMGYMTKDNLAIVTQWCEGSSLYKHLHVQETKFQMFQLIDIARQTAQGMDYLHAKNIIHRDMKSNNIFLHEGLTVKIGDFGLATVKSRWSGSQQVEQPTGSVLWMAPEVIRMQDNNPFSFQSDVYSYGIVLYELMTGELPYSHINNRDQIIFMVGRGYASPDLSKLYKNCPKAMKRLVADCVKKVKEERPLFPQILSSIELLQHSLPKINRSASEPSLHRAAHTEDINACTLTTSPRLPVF
Experimental: Compounds disclosed herein were tested against B-Raf (V600E) (PV3849, from Invitrogen) or C-Raf (Y340D/Y341D) (PV3805, from Invitrogen) in a time-resolved fluorescence energy transfer assay. The assay was carried out in reactions (10 μL) containing 0.0625 nM B-Raf or 0.5 nM C-Raf, 25 mM Tris pH7.4, 10 mM MgCl2, 0.5 mM EGTA, 0.5 mM Na3VO4, 5 mM beta-glycerophosphate, 0.01% Triton X-100, 2.5 mM DTT, 0.1% BSA, 0.1 mM ATP, 13.7 nM GST-tagged MEK1 (Full-length protein with K97R mutation, recombinant protein purified from bacterial expression system) and 0-5 μM compounds disclosed herein (final concentration of 1% DMSO). The enzyme was incubated with the compounds disclosed herein at room temperature for 60 minutes and the reactions were initiated by the addition of ATP and GST-MEK1. After reaction at room temperature for 60 minutes, an equal volume of stop/detection solution was added according to the manufacture's instruction (CisBio Bioassays). The stop/detection solution contained Eu^3+ cryptate-conjugated anti-phospho MEK1/2 (Ser217/221) rabbit polyclonal antibody and d2-conjugated anti-GST mouse monoclonal antibody in buffer containing 25 mM Tris pH7.4, 400 mM KF, 50 mM EDTA, 0.01% BSA and 0.01% Triton X-100. Plates were sealed and incubated at room temperature for 2 hours, and the TR-FRET signals (ratio of fluorescence emission at 665 nm over emission at 620 nm with excitation at 337 nm wavelength) were recorded on a PHERAstar FS plate reader (BMG Labtech). Phosphorylation of MEK1 led to the binding of anti-phospho-MEK1/2 antibody to GST-MEK1 protein that place fluorescent donor (Eu^3+ crypate) in close proximity to the accepter d2 on the anti-GST antibody, thus resulting in a high degree of fluorescence resonance energy transfer from the donor fluorophore (at 620 nm) to the acceptor fluorophore (at 665 nm). […] The IC50 for each compound was derived from fitting the dose-response % inhibition data to the four-parameter logistic model by Graphpad Prism software.

EGFR L858R kinase domain = EGFR L858R kinase domain (Homo sapiens (Human), UniProt P00533, L858R); experiment: EGFR enzymatic assay, TR-FRET, EGFR L858R
EGFR L858R kinase domain, sequence (P00533 669-1210 L858R): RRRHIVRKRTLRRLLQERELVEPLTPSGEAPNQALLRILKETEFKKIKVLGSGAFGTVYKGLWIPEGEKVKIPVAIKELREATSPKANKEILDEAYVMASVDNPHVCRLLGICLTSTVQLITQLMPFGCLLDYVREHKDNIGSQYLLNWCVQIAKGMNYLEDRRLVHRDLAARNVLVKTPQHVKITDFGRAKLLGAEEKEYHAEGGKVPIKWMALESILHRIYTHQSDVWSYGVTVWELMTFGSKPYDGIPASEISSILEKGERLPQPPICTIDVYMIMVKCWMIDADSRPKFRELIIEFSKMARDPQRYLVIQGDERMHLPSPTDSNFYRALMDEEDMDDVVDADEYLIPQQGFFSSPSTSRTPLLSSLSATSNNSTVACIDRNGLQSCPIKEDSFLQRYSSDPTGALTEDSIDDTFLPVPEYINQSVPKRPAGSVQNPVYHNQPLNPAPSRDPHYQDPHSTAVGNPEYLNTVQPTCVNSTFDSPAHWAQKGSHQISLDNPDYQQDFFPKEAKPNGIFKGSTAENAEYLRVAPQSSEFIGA

B-Raf (V600E) = B-Raf (V600E) (Homo sapiens (Human), UniProt P15056, V600E); experiment: Raf IC50 assay, TR-FRET, B-Raf (V600E); settings: 0.1 mM ATP; read-out: IC50 BRAF-V600E
B-Raf (V600E), sequence (P15056 whole entry V600E, the tested form may be a part): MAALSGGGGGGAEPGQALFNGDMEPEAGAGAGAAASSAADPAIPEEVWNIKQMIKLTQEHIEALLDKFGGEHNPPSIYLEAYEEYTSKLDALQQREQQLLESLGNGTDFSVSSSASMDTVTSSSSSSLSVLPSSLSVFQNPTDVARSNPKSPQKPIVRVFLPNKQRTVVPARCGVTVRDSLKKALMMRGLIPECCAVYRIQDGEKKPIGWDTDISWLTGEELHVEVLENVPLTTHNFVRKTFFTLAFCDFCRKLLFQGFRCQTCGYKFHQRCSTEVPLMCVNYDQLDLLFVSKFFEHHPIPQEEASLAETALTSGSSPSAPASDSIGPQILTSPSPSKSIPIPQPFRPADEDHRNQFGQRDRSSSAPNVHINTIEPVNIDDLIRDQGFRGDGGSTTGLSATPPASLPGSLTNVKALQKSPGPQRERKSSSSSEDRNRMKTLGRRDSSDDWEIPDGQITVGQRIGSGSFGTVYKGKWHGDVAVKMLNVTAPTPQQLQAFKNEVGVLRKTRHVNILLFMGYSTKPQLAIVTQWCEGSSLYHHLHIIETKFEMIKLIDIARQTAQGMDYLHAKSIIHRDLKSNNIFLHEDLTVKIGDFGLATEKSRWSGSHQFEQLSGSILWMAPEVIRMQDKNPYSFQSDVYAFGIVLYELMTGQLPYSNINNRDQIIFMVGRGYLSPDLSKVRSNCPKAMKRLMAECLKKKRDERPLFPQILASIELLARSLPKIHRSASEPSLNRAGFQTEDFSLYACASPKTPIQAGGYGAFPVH

WT EGFR kinase domain = WT EGFR kinase domain (Homo sapiens (Human), UniProt P00533); experiment: EGFR enzymatic assay, TR-FRET, WT EGFR
WT EGFR kinase domain, sequence (P00533 669-1210): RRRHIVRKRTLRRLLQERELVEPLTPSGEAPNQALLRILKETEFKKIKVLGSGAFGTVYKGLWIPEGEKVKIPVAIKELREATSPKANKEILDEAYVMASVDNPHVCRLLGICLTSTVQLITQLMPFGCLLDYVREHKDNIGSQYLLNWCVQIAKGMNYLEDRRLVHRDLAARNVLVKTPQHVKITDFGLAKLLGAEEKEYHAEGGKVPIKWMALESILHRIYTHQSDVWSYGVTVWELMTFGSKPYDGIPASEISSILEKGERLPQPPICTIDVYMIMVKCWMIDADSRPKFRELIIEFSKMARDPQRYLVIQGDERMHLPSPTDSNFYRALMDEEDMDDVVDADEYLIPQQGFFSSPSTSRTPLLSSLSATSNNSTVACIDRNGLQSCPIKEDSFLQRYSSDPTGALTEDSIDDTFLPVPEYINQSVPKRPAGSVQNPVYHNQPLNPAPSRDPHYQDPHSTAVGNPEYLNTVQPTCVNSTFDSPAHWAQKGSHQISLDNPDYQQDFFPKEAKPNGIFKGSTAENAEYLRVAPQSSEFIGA

wild type B-Raf, sequence (P15056 whole entry): as the sequence (P15056 whole entry V600E, the tested form may be a part) above, with E600V counted along it

`O=C1CCc2c(Oc3ccc4c(c3)[C@H]3[C@H](NC(=O)c5ccc(C(F)(F)F)cc5)[C@H]3O4)ccnc2N1` [Compound 1.40] showed an IC50 (wild type B-Raf) of 5.7 nM, an IC50 [1] of 84 nM and an IC50 (C-Raf (Y340D/Y341D)) of 0.64 nM. It also gave an IC50 (EGFR L858R kinase domain) of 12 nM, an IC50 (B-Raf (V600E)) of 8.1 nM and an IC50 (WT EGFR kinase domain) of 13 nM.
`CC(C)(C#N)c1cccc(C(=O)N[C@@H]2[C@H]3Oc4ccc(Oc5ccnc6c5CCC(=O)N6)cc4[C@@H]23)c1` [Compound 1.43] was tested, and the IC50 (wild type B-Raf) was 4.4 nM, the IC50 [1] was 38 nM and the IC50 (C-Raf (Y340D/Y341D)) was 0.34 nM. The IC50 (EGFR L858R kinase domain) was 11 nM, the IC50 (B-Raf (V600E)) was 4.1 nM and the IC50 (WT EGFR kinase domain) was 13 nM.
In the case of `CN(C)[C@H]1CCCN(c2ccc(C(=O)N[C@@H]3[C@H]4Oc5ccc(Oc6ccnc7c6CCC(=O)N7)cc5[C@@H]34)cc2C(F)(F)F)C1` [Compound 1.47, 4-((S)-3-(dimethylamino)piperidin-1-yl)-N-((1S,1aS,6bS)-5-((7-oxo-5,6,7,8-tetrahydro-1,8-naphthyridin-4-yl)oxy)-1a,6b-dihydro-1H-cyclopropa[b]benzofuran-1-yl)-3-(trifluoromethyl)benzamide], the IC50 (wild type B-Raf) is reported as 8.5 nM, the IC50 [1] is reported as 6.6 nM and the IC50 (C-Raf (Y340D/Y341D)) is reported as 1.2 nM. It also gave an IC50 (EGFR L858R kinase domain) of 0.39 nM, an IC50 (B-Raf (V600E)) of 10 nM and an IC50 (WT EGFR kinase domain) of 1.4 nM.
With `CN1CCN(c2ccc(C(=O)N[C@@H]3[C@H]4Oc5ccc(Oc6ccnc7c6CCC(=O)N7)cc5[C@@H]34)cc2C(F)(F)F)CC1` [Compound 1.49] the IC50 (wild type B-Raf) was 13 nM, the IC50 [1] was 38 nM and the IC50 (C-Raf (Y340D/Y341D)) was 2.6 nM. It also gave an IC50 (EGFR L858R kinase domain) of 4.6 nM, an IC50 (B-Raf (V600E)) of 9.5 nM and an IC50 (WT EGFR kinase domain) of 5.1 nM.
Work on `CCN1CCN(Cc2ccc(C(=O)N[C@@H]3[C@H]4Oc5ccc(Oc6ccnc7c6COC(=O)N7)cc5[C@@H]34)cc2C(F)(F)F)CC1` [Compound 2.1, 4-((4-ethylpiperazin-1-yl)methyl)-N-((1S,1aS,6bS)-5-((2-oxo-2,4-dihydro-1H-pyrido[2,3-d][1,3]oxazin-5-yl)oxy)-1a,6b-dihydro-1H-cyclopropa[b]benzofuran-1-yl)-3-(trifluoromethyl)benzamide] yielded an IC50 (wild type B-Raf) of 15 nM, an IC50 [1] of 0.25 nM and an IC50 (C-Raf (Y340D/Y341D)) of 2.3 nM. The IC50 (EGFR L858R kinase domain) was 0.38 nM, the IC50 (B-Raf (V600E)) was 16 nM and the IC50 (WT EGFR kinase domain) was 1.8 nM.
Work on `CCN1CCN(Cc2ccc(C(=O)N[C@@H]3[C@H]4Oc5ccc(Oc6ccnc(C(=O)NC)c6)cc5[C@@H]34)cc2C(F)(F)F)CC1` [Compound 2.3, 4-(((1S,1aS,6bS)-1-(4-((4-ethylpiperazin-1-yl)methyl)-3-(trifluoromethyl)benzamido)-1a,6b-dihydro-1H-cyclopropa[b]benzofuran-5-yl)oxy)-N-methylpicolinamide] yielded an IC50 (wild type B-Raf) of 52 nM, an IC50 [1] of 22 nM and an IC50 (C-Raf (Y340D/Y341D)) of 12 nM. For the same compound, the IC50 (EGFR L858R kinase domain) was 4.7 nM, the IC50 (B-Raf (V600E)) was 54 nM and the IC50 (WT EGFR kinase domain) was 7.1 nM.
